Numbered stars: 1 amine (or outer) side, 2 acyl side, 3 side chain; on linkers, the order of the positions; unused ones are H or OH. Bridge positions count the residues as written; N and C are the ends. Square brackets hold non-standard residues; d marks the D form. Peptide text beside a SMILES is read from it. X8 = O=C(C[*:1])NCCn1c(=O)n(CCNC(=O)C[*:2])c(=O)n(CCNC(=O)C[*:3])c1=O; X7 = O=S(=O)(CC[*:1])N1CCN(S(=O)(=O)CC[*:2])CCN(S(=O)(=O)CC[*:3])CC1; X6 = O=S(=O)(CC[*:1])c1cc(S(=O)(=O)CC[*:2])cc(S(=O)(=O)CC[*:3])c1; X1 = O=C(CC[*:1])N1CC23CN(C(=O)CC[*:2])CC2(C1)CN(C(=O)CC[*:3])C3; X9 = O=C(C[*:1])N1CCOCCN(C(=O)C[*:2])CCOCCN(C(=O)C[*:3])CCOCC1; X3 = O=C(C[*:1])N1CC23CN(C(=O)C[*:2])CC2(C1)CN(C(=O)C[*:3])C3; X2 = O=C(CC[*:1])N1CCN(C(=O)CC[*:2])CCN(C(=O)CC[*:3])CC1; X5 = O=C(C[*:1])N1CCN(C(=O)C[*:2])CCN(C(=O)C[*:3])CC1; X4 = O=C(C[*:1])NCCN(CCNC(=O)C[*:2])CCNC(=O)C[*:3]; 1Nal = N[C@@H](Cc1cccc2ccccc12)C(=O)O; Tle = CC(C)(C)[C@H](N)C(=O)O
How the values were obtained:
CAIX = CAIX (Homo sapiens, UniProt Q16790); assay: CAIX competition binding assay (competition fluorescence polarization); settings: fluorescent ligand A-(CAECWIDGWVPC)-A-Sar6-K(Fl)
Procedure: CAIX Competition Binding Assay Affinity of the peptides of the invention for human CAIX (Ki) was determined using a competition fluorescence polarization assay analogous to that described in Dubois et al. (2011) Radiotherapy and Oncology 99(3), 424-43 using A-(CAECWIDGWVPC)-A-Sar6-K(Fl) (SEQ ID NO: 5) as the fluorescent ligand.
A Ki value designated “A” denotes a Ki of ≤50 nM; a Ki value designated “B” denotes a K, of >50 nM and ≤100 nM; a Ki value designated “C” denotes a Ki of >100 nM and ≤1,000 nM; and a Ki value designated “D” denotes a Ki of >1,000 nM.

MT1-MMP hemopexin domain = MT1-MMP hemopexin domain (Homo sapiens, UniProt P50281); assay: Direct binding fluorescence polarization (anisotropy) assay
Procedure: Direct Binding Fluorescence Polarization or Anisotropy Assays are performed by titrating a constant concentration of fluorescent tracer (here, the fluoresceinated bicyclic peptide to be studied) with its binding partner (here, the MT1-MMP hemopexin domain). As the concentration of binding partner increases during the titration, the polarization signal changes in proportion to the fraction of bound and unbound material. This allows determination of […] (Kd) quantitatively. Assay data can be fit using standard ligand binding equations.
Typically, concentrations of the tracer are ideally well below the Kd of the tracer:titrant pair, and concentrations chosen are usually at ˜1 nM or less. The titrant (binding partner) concentration is varied from 0.1 nM up to typically 5 μM. The range is chosen such that the maximum change in fluorescent polarization can be observed. Buffers employed are phosphate buffered saline in the presence of 0.01% Tween. Experiments were run in black 384 well low-bind/low volume plates (Corning 3820), and the fluorescent polarization signal was measured using a BMG Pherastar FS plate reader. Fluorescent tracers referred to in the text are bicyclic peptides that have been fluoresceinated using 5,6-carboxyfluorescein. Fluoresceination may be performed on the N-terminal amino group of the peptide, which is separated from the bicycle core sequence by a sarcosine spacer (usually Sar5). This can be done during Fmoc solid phase synthesis or post-synthetically (after cyclization with the molecular scaffold reagent and purification) if the N-terminal amino group is unique to the peptide. Fluoresceination can also be performed on the C-terminus, usually on a Lysine introduced as the first C-terminal residue, which is then separated from the bicycle core sequence by a sarcosine spacer (usually Sar6). Thus, N-terminal tracers can have a molecular format described as Fluo-Gly-Sar5-A(BicycleCoreSequence), and (BicycleCoreSequence)-A-Sar6-K(Fluo) for a C-terminally fluoresceinated construct.
Fluorescent tracers used in the Examples are A-(17-69)-A-Sar6-K(Fluo), A-(17-69-07)-A-Sar6-K(Fluo), and A-(17-69-12)-A-Sar6-K(Fluo). Due to the acidic nature of the 17-69 fluorescent peptides, they were typically prepared as concentrated DMSO stocks, from which dilution were prepared in 100 mM Tris pH 8 buffer.
Results from the direct binding fluorescence polarization (anisotropy) assays is depicted in Table 3, below. A K, value designated “A” denotes a Ki of ≤50 nM; a Ki value designated “B” denotes a Ki of >50 nM and ≤100 nM; a Ki value designated “C” denotes a Ki of >100 nM and ≤1,000 nM; and a Ki value designated “D” denotes a Ki of >1,000 nM.

SMILES | Ki (CAIX) | Ki (MT1-MMP hemopexin domain)
CC(C)[C@@H]1NC(=O)[C@H](Cc2c[nH]c3ccccc23)NC(=O)[C@@H]2CSCC(=O)NCCn3c(=O)n(c(=O)n(c3=O)CCNC(=O)CSC[C@H](NC(=O)[C@H](C)NC(=O)CN(C)C(=O)CN(C)C(=O)CN(C)C(=O)CN(C)C(=O)CN(C)C(=O)CN(C)C(=O)CN(C)C(=O)CN(C)C(=O)CN(C)C(=O)CN(C)C(=O)CCN)C(=O)N[C@@H]([C@@H](C)O)C(=O)N[C@@H](CCC(=O)O)C(=O)N2)CCNC(=O)CSC[C@@H](C(=O)O)NC(=O)[C@@H]2CCCN2C(=O)[C@H](C(C)C)NC(=O)[C@H](Cc2c[nH]c3ccccc23)NC(=O)CNC(=O)[C@H](CC(=O)O)NC1=O [Compound I-19] | 50 to 100 nM | –
CC(C)[C@@H]1NC(=O)[C@H](Cc2c[nH]c3ccccc23)NC(=O)[C@@H]2CSCC(=O)N3CCN(CCN(CC3)C(=O)CSC[C@H](NC(=O)[C@H](C)NC(=O)CN(C)C(=O)CN(C)C(=O)CN(C)C(=O)CN(C)C(=O)CN(C)C(=O)CN(C)C(=O)CN(C)C(=O)CN(C)C(=O)CN(C)C(=O)CN(C)C(=O)CCN)C(=O)N[C@@H]([C@@H](C)O)C(=O)N[C@@H](CCC(=O)O)C(=O)N2)C(=O)CSC[C@@H](C(N)=O)NC(=O)[C@@H]2CCCN2C(=O)[C@H](C(C)C)NC(=O)[C@H](Cc2c[nH]c3ccccc23)NC(=O)CNC(=O)[C@H](CC(=O)O)NC1=O [Compound I-21] | 100 to 1000 nM | –
C[C@H](N)C(=O)N[C@H]1CSCC(=O)NCCn2c(=O)n3c(=O)n(c2=O)CCNC(=O)CSC[C@H](NC(=O)[C@@H](C)NC(=O)[C@H](Cc2cccc4ccccc24)NC(=O)[C@H](CCC(=O)O)NC(=O)[C@H](CC(N)=O)NC(=O)[C@@H](C)NC1=O)C(=O)N[C@@H](CCC(=O)O)C(=O)N[C@@H](CC(=O)O)C(=O)N[C@@H](Cc1ccccc1)C(=O)N[C@@H](Cc1ccc(O)cc1)C(=O)N[C@@H](CC(=O)O)C(=O)N[C@@H](C(C)(C)C)C(=O)N[C@H](C(N)=O)CSCC(=O)NCC3 [Compound I-52] (H-AC[dA]NE[1Nal][dA]CEDFYD[Tle]C-NH2; linker 2-8-15 via X8) | – | 100 to 1000 nM
C[C@H](N)C(=O)N[C@H]1CSCC(=O)N2CCN3CCN(CC2)C(=O)CSC[C@H](NC(=O)[C@@H](C)NC(=O)[C@H](Cc2cccc4ccccc24)NC(=O)[C@H](CCC(=O)O)NC(=O)[C@H](CC(N)=O)NC(=O)[C@@H](C)NC1=O)C(=O)N[C@@H](CCC(=O)O)C(=O)N[C@@H](CC(=O)O)C(=O)N[C@@H](Cc1ccccc1)C(=O)N[C@@H](Cc1ccc(O)cc1)C(=O)N[C@@H](CC(=O)O)C(=O)N[C@@H](C(C)(C)C)C(=O)N[C@H](C(N)=O)CSCC3=O [Compound I-54] (H-AC[dA]NE[1Nal][dA]CEDFYD[Tle]C-NH2; linker 2-8-15 via X5) | – | ≤ 50 nM
C[C@H](N)C(=O)N[C@H]1CSCCC(=O)N2CCN3CCN(CC2)C(=O)CCSC[C@H](NC(=O)[C@@H](C)NC(=O)[C@H](Cc2cccc4ccccc24)NC(=O)[C@H](CCC(=O)O)NC(=O)[C@H](CC(N)=O)NC(=O)[C@@H](C)NC1=O)C(=O)N[C@@H](CCC(=O)O)C(=O)N[C@@H](CC(=O)O)C(=O)N[C@@H](Cc1ccccc1)C(=O)N[C@@H](Cc1ccc(O)cc1)C(=O)N[C@@H](CC(=O)O)C(=O)N[C@@H](C(C)(C)C)C(=O)N[C@H](C(N)=O)CSCCC3=O [Compound I-55] (H-AC[dA]NE[1Nal][dA]CEDFYD[Tle]C-NH2; linker 2-8-15 via X2) | – | 50 to 100 nM
C[C@H](N)C(=O)N[C@H]1CSCCC(=O)N2CC34CN5CC3(C2)CN(C4)C(=O)CCSC[C@H](NC(=O)[C@@H](C)NC(=O)[C@H](Cc2cccc3ccccc23)NC(=O)[C@H](CCC(=O)O)NC(=O)[C@H](CC(N)=O)NC(=O)[C@@H](C)NC1=O)C(=O)N[C@@H](CCC(=O)O)C(=O)N[C@@H](CC(=O)O)C(=O)N[C@@H](Cc1ccccc1)C(=O)N[C@@H](Cc1ccc(O)cc1)C(=O)N[C@@H](CC(=O)O)C(=O)N[C@@H](C(C)(C)C)C(=O)N[C@H](C(N)=O)CSCCC5=O [Compound I-56] (H-AC[dA]NE[1Nal][dA]CEDFYD[Tle]C-NH2; linker 2-8-15 via X1) | – | 100 to 1000 nM
C[C@H](N)C(=O)N[C@H]1CSCC(=O)N2CC34CN5CC3(C2)CN(C4)C(=O)CSC[C@H](NC(=O)[C@@H](C)NC(=O)[C@H](Cc2cccc3ccccc23)NC(=O)[C@H](CCC(=O)O)NC(=O)[C@H](CC(N)=O)NC(=O)[C@@H](C)NC1=O)C(=O)N[C@@H](CCC(=O)O)C(=O)N[C@@H](CC(=O)O)C(=O)N[C@@H](Cc1ccccc1)C(=O)N[C@@H](Cc1ccc(O)cc1)C(=O)N[C@@H](CC(=O)O)C(=O)N[C@@H](C(C)(C)C)C(=O)N[C@H](C(N)=O)CSCC5=O [Compound I-57] (H-AC[dA]NE[1Nal][dA]CEDFYD[Tle]C-NH2; linker 2-8-15 via X3) | – | 100 to 1000 nM
C[C@H](N)C(=O)N[C@H]1CSCC(=O)N2CCOCCN3CCOCCN(CCOCC2)C(=O)CSC[C@H](NC(=O)[C@@H](C)NC(=O)[C@H](Cc2cccc4ccccc24)NC(=O)[C@H](CCC(=O)O)NC(=O)[C@H](CC(N)=O)NC(=O)[C@@H](C)NC1=O)C(=O)N[C@@H](CCC(=O)O)C(=O)N[C@@H](CC(=O)O)C(=O)N[C@@H](Cc1ccccc1)C(=O)N[C@@H](Cc1ccc(O)cc1)C(=O)N[C@@H](CC(=O)O)C(=O)N[C@@H](C(C)(C)C)C(=O)N[C@H](C(N)=O)CSCC3=O [Compound I-58] (H-AC[dA]NE[1Nal][dA]CEDFYD[Tle]C-NH2; linker 2-8-15 via X9) | – | 50 to 100 nM
C[C@H](N)C(=O)N[C@H]1CSCCS(=O)(=O)N2CCN3CCN(CC2)S(=O)(=O)CCSC[C@@H](NC(=O)[C@@H](C)NC(=O)[C@H](Cc2cccc4ccccc24)NC(=O)[C@H](CCC(=O)O)NC(=O)[C@H](CC(N)=O)NC(=O)[C@@H](C)NC1=O)C(=O)N[C@@H](CCC(=O)O)C(=O)N[C@@H](CC(=O)O)C(=O)N[C@@H](Cc1ccccc1)C(=O)N[C@@H](Cc1ccc(O)cc1)C(=O)N[C@@H](CC(=O)O)C(=O)N[C@@H](C(C)(C)C)C(=O)N[C@H](C(N)=O)CSCCS3(=O)=O [Compound I-59] (H-AC[dA]NE[1Nal][dA][dC]EDFYD[Tle]C-NH2; linker 2-8-15 via X7) | – | > 1000 nM
C[C@H](N)C(=O)N[C@H]1CSCC(=O)NCCN2CCNC(=O)CSC[C@@H](C(=O)O)NC(=O)[C@H](C(C)(C)C)NC(=O)[C@H](CC(=O)O)NC(=O)[C@H](Cc3ccc(O)cc3)NC(=O)[C@H](Cc3ccccc3)NC(=O)[C@H](CC(=O)O)NC(=O)[C@H](CCC(=O)O)NC(=O)[C@H](CSCC(=O)NCC2)NC(=O)[C@@H](C)NC(=O)[C@H](Cc2cccc3ccccc23)NC(=O)[C@H](CCC(=O)O)NC(=O)[C@H](CC(N)=O)NC(=O)[C@@H](C)NC1=O [Compound I-60] (H-AC[dA]NE[1Nal][dA]CEDFYD[Tle]C-OH; linker 2-8-15 via X4) | – | 100 to 1000 nM
C[C@H](N)C(=O)N[C@H]1CSCCS(=O)(=O)c2cc3cc(c2)S(=O)(=O)CCSC[C@@H](NC(=O)[C@@H](C)NC(=O)[C@H](Cc2cccc4ccccc24)NC(=O)[C@H](CCC(=O)O)NC(=O)[C@H](CC(N)=O)NC(=O)[C@@H](C)NC1=O)C(=O)N[C@@H](CCC(=O)O)C(=O)N[C@@H](CC(=O)O)C(=O)N[C@@H](Cc1ccccc1)C(=O)N[C@@H](Cc1ccc(O)cc1)C(=O)N[C@@H](CC(=O)O)C(=O)N[C@@H](C(C)(C)C)C(=O)N[C@H](C(N)=O)CSCCS3(=O)=O [Compound I-61] (H-AC[dA]NE[1Nal][dA][dC]EDFYD[Tle]C-NH2; linker 2-8-15 via X6) | – | ≤ 50 nM

Source: patent publication US10857196B2, “Bicyclic peptide ligands and uses thereof” (BicycleTx Limited, priority 2017, dated 2020)
